For this test, the target named is T1, N-half co-expressed with the K1978M C-half mutant of ABCR (Homo sapiens, UniProt P78363, K1978M).
T1 construct: The cDNAs coding for the N-half (amino acids 1-1325) and C-half (amino acids 1326-2273) of ABCR; made in house
T1 sequence (P78363 1-1325): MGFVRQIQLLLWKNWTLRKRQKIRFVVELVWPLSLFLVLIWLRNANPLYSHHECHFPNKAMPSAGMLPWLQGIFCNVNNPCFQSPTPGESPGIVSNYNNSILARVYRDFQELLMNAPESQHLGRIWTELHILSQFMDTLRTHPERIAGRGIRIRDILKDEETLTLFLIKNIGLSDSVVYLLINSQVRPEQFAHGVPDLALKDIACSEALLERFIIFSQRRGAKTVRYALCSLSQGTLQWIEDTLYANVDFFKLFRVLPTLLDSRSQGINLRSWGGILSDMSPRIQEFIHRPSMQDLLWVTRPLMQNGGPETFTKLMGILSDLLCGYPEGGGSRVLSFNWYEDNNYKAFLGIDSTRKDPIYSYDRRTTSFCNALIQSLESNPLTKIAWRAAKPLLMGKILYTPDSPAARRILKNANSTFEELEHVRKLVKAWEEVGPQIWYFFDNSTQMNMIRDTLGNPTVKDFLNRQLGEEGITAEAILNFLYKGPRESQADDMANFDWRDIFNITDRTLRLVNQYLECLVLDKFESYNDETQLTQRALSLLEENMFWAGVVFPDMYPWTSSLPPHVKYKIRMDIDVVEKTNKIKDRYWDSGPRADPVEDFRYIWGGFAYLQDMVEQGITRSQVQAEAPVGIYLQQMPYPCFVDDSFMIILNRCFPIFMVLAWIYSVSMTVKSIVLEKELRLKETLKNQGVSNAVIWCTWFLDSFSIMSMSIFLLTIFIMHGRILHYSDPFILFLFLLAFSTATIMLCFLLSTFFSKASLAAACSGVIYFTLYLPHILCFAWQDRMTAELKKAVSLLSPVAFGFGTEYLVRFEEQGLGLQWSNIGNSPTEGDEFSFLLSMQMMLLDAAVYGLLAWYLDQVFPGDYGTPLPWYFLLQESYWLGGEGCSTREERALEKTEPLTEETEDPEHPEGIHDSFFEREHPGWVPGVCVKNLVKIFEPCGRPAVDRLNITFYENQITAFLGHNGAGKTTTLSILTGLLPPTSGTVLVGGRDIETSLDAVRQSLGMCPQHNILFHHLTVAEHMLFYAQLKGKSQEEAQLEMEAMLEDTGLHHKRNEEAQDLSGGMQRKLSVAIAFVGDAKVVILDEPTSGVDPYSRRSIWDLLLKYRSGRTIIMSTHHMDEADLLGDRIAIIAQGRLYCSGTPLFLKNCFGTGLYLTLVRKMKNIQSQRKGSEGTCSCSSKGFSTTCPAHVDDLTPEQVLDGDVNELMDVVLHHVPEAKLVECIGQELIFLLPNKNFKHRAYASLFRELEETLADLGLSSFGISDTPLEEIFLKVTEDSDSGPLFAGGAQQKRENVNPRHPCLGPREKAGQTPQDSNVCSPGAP
T1 sequence (P78363 1326-2273 K1978M): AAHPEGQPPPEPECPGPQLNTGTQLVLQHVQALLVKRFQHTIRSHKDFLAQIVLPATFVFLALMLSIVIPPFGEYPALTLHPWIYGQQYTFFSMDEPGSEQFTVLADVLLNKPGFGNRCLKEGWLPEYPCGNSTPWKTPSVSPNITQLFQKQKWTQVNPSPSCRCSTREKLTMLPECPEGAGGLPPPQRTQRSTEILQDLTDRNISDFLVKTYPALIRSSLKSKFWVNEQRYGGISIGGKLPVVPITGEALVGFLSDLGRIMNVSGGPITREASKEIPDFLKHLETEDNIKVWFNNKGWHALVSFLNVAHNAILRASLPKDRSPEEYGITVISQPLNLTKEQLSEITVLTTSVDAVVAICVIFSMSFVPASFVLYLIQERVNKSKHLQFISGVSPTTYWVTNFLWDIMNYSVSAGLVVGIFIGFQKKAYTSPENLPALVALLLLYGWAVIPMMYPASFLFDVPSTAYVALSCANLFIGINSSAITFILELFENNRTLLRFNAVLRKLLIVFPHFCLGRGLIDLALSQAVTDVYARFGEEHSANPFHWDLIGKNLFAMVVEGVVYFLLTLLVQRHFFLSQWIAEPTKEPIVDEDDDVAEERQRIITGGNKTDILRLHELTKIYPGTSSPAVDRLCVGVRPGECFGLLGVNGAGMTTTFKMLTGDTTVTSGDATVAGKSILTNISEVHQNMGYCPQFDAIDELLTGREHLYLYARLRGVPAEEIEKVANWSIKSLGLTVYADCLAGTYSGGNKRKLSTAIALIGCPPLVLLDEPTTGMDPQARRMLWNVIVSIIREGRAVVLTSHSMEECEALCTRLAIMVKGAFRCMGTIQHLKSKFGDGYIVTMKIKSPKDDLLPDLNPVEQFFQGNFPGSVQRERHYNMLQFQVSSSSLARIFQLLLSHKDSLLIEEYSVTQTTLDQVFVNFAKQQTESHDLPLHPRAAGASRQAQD
The test can be described thus: ATPase activity of Walker A lysine-to-methionine mutants. It counts as biochemical. The note with it: 50 μM all-trans retinal. How it is done: FIG. 4. Lysine to methionine Walker A mutations in ABCR abolish ATP hydrolysis but not ATP binding. A. ATPase activity was measured in the absence (white bars) or presence of 50 μM all-trans retinal (grey bars). WT, wild-type; K969M in NBD1; K1978M in NBD2; MM, K969M/K1978M double mutant; NCM, N-half co-expressed with C-half containing a K1978M mutation. B. ATP photoaffinity labeling was carried out by irradiating membranes from COS-1 cells expressing wild-type (WT), K969M, K1978M, or K969M/K1978M double mutant (MM) with 3 μM 8-azido-[α-^32P]ATp. The labeled protein was isolated with Rim3F4-Sepharose and separated on SDS gels. Left panel: gel stained with Coomassie blue. Right panel: corresponding ^32P labeling obtained with a phosphorimager. All mutant proteins were labeled with 8-azido-[α-^32P]ATP, but the double mutant bound less nucleotide.
ATPase activity was measured as described previously (Ahn, J., Wong, J. T., and Molday, R. S. (2000) J Biol Chem 275(27), 20399-405) using 50 μM [α^32P]ATP and thin layer chromatography. The all-trans retinal concentration was determined spectrophotometrically (λ383 nm=42.88 mM^−1 cm^−1). Protein concentration was estimated from the eluate before reconstitution by laser densitometry of Coomassie blue stained gels using bovine serum albumin as a standard. […]

SMILES strings stand for the structures.

On to `CC1=C(/C=C/C(C)=C/C=C/C(C)=C/C=O)C(C)(C)CCC1` [all-trans retinal], for which the “retinal-stimulated ATPase activity” value is “abolished”.

These data come from patent publication US20060110790A1, “Expression system for large functional proteins” (priority 2002, published 2006).
